Measurements taken from patent publication US11351538B2, “Fluidic device and method of assembling same” (Northeastern University, priority 2017, dated 2022).

Tested on: primary human intestinal epithelial monolayers
Test: Paracellular permeability measurement across primary organoid derived monolayers (bi-layer chips vs static inserts)
Type: in vitro ADME
Settings: apical to basal, 5 days, p-value=0.0029
Procedure: The apparent permeability coefficient for a 4.4 kDa, tetramethylrhodamine (TRITC) labeled dextran (cat no. T1037, Sigma-Aldrich) was determined by measuring transport across the Caco-2 cell monolayer. TEER values of cell monolayers were measured prior to the permeability assay and monolayers with TEER values below 165Ω×cm^2 were not used. For control Transwell cultures, 300 μL of 500 μM dextran in cell culture medium was applied to the apical compartment. 100 μL was immediately sampled from the apical compartment, transferred to a black, polystyrene, 96 well plate and stored in a 4° C. fridge. Transwells were maintained in a humidified, 37° C.+5% CO2 incubator. 100 μL aliquots were sampled from the basolateral compartment every 30 minutes over 3 hours and 100 μL of fresh medium preheated to 37° C. was added to replace the aliquoted volume. The fluorescence intensity of the collected basolateral samples was measured at 557 nm and 576 nm […] wavelengths, respectively. The actual dextran concentration was determined via a calibration curve. The apparent permeability coefficient was calculated as specified. […] The apparent permeability coefficient for Lucifer Yellow (cat no. L0259, Sigma-Aldrich) across primary organoid derived monolayers on static inserts and bi-layer chips was determined as described above. […]

## Lucifer Yellow
  apparent permeability, change between 5-day static and fluidic device models: significant increase
